According to patent US20150157634A1, “METHODS OF TREATING AND PREVENTING ALLOANTIBODY DRIVEN CHRONIC GRAFT VERSUS HOST DISEASE” (PHARMACYCLICS, INC., priority 2013, published 2015):

Key:
[1] = tested on: C57BL/6→B10.BR cGVHD model; experiment: Germinal center detection in spleen (PNA staining, flow cytometry of GC B-cells); format: in vivo, mouse
Text: (§1) FIG. 4 exemplifies germinal center reactions and pulmonary immunoglobulin deposition are therapeutically abated with administration of ibrutinib. A) Germinal centers were imaged by staining 6 um spleen sections with PNA conjugated to rhodamine. B) Splenocytes were purified from transplanted mice on day 60 and frequency of germinal center B cells were quantified. C) 6 μm lung sections from day 60 transplanted mice were stained with anti-mouse Ig conjugated to FITC. D) quantified with Adobe Photoshop CS3.
(§2) Therapeutic allo-HSCT model: The C57BL/6→B10.BR model has been described previously (Srinivasan, M. et al. Blood 119, 1570-1580 (2012)). In brief, B10.BR recipients conditioned with 120 mg/kg/day I.P. cyclophosphamide (Cy) on days −3 and −2 and 8.3 Gy TBI (using a ^137Cesium irradiator) on day −1 were engrafted with 1×10^7 Thy1.2 depleted C57BL/6 derived bone marrow (BM) cells with (or without) 1×10^6 allogeneic splenocytes.
Therapeutic administration of ibrutinib via drinking water was conducted as previously described (Dubovsky 2013). Mice received a dose equivalent to 15 mg/Kg/day in 0.4% methylcellulose by intraperitoneal injection starting day 28 post-transplant for the C57BL/6→B10.BR model. Cyclosporine A was administered I.P. in 0.2% CMC at 10 mg/kg/day starting at day 25 for 2-weeks followed by 3× weekly (Blazar, B. R. et al. Blood 92, 3949-3959 (1998)). […]

[2] = tested on: C57BL/6→B10.BR cGVHD model; experiment: Pulmonary immunoglobulin deposition (anti-mouse Ig FITC immunofluorescence of lung sections); format: in vivo; conditions: day 60 post-HSCT
Text: as §1, §2
(§3) Therapeutic administration of ibrutinib via drinking water was conducted as previously described (Dubovsky 2013). Mice received a dose equivalent to 15 mg/Kg/day in 0.4% methylcellulose by intraperitoneal injection starting day 28 post-transplant for the C57BL/6→B10.BR model. Cyclosporine A was administered I.P. in 0.2% CMC at 10 mg/kg/day starting at day 25 for 2-weeks followed by 3× weekly (Blazar, B. R. et al. Blood 92, 3949-3959 (1998)).

[3] = tested on: C57BL/6→B10.BR cGVHD model; experiment: Overall survival of cGVHD mice (Kaplan Meier); format: in vivo, mouse; conditions: ibrutinib cohort; FIG. 2
Description: FIG. 2 exemplifies survival of cGVHD mice in C57BL/6→B10.BR model. Kaplan Meier plot of overall survival for bone marrow (BM) non-cGVHD mice, BM+splenocyte (S) engrafted cGVHD irrelevant vehicle treated mice, or Ibrutinib treated BM+S engrafted mice.
as §2, §3

[4] = tested on: C57BL/6→B10.BR cGVHD model; experiment: Pulmonary function tests (PFTs) at day 60 in therapeutic allo-HSCT cGVHD/bronchiolitis obliterans model; format: in vivo, mouse
Description: To determine whether ibrutinib could reverse established cGVHD, a murine model of alloantibody driven multi-organ system cGVHD including bronchiolar obliterans (BO) (MHC disparate, C57BL/6→B10.BR) was utilized.
as §2, §3
Pulmonary function tests: Pulmonary function tests (PFTs) were performed on anesthetized mice using whole-body plehysmography with the Flexivent system (SCIREQ).

[5] = tested on: C57BL/6→B10.BR cGVHD model; experiment: Masson trichrome staining of pulmonary collagen deposition / fibrosis in cGVHD model; format: in vivo, mouse
Description: as §2, §3
Masson Trichrome staining: 6 μm cryosections were fixed for 5 minutes in acetone and stained with hematoxylin and eosin to determine pathology and with the Masson's trichrome staining kit (Sigma) for detection of collagen deposition. Histopathology scores were assigned as described (Blazar, B. R. et al. Blood 92, 3949-3959 (1998)). Collagen deposition was quantified on trichrome stained sections as a ratio of area of blue staining to area of total staining using the Adobe Photoshop CS3 analysis tool.

[6] = Weekly body weight of cGVHD mice; format: in vivo, mouse; conditions: BM, BM+S vehicle and BM+S ibrutinib groups; FIG. 3
Description: FIG. 3 exemplifies body weight of cGVHD mice in C57BL/6→B10.BR model. Bodyweight measurements for bone marrow (BM) non-cGVHD mice, BM+splenocyte (S) engrafted cGVHD irrelevant vehicle treated mice, or Ibrutinib treated BM+S engrafted mice.
as §2, §3

## C=CC(=O)N1CCC[C@@H](n2nc(-c3ccc(Oc4ccccc4)cc3)c3c(N)ncnc32)C1 [ibrutinib, (R)-1-(3-(4-amino-3-(4-phenoxyphenyl)-1H-pyrazolo[3,4-d]pyrimidin-1-yl)piperidin-1-yl)prop-2-en-1-one]
[1]; compared to vehicle treated mice with active cGVHD, FIG. 4A
  GC reactions within the spleen (peanut agglutinin staining): reduced the overall size, cellularity, and number of GC reactions
[1]; day 60 post-HSCT, 8 mice per group, p=0.0222, FIG. 4B
  CD19+GL7+CD38lo germinal center B-cells within the spleen (flow cytometry): significantly inhibited the cGVHD-induced formation germinal center B-cells
[2]; FIG. 4C
  pulmonary deposition of allo-Ig (immunofluorescent microscopy): limited pulmonary deposition of allo-Ig
[2]; p<0.001, FIG. 4D
  quantified immunofluorescent signal of pulmonary Ig deposition: significant and complete ablation of pulmonary Ig deposition
[3]
  survival: 100%
[4]; C57BL/6→B10.BR cGVHD model
  pulmonary function (summary statement): restored pulmonary function
[4]; ibrutinib 15 mg/Kg/day from day 28 post-transplant, PFT day 60, p=0.0019, FIG. 1B
  development of BO as measured by pulmonary elastance: curtailed the development of BO in vivo
[4]; ibrutinib 15 mg/Kg/day from day 28 post-transplant, PFT day 60, p=0.0071, FIG. 1C
  development of BO as measured by pulmonary compliance: curtailed the development of BO in vivo
[4]; ibrutinib 15 mg/Kg/day from day 28 post-transplant, PFT day 60, p=0.0090, FIG. 1A
  development of BO as measured by pulmonary resistance: curtailed the development of BO in vivo
[5]; 4 mice from 3 experiments, representative images, FIG. 1D
  peribronchiolar collagen fibrosis, Masson Trichrome staining of inflated pulmonary tissues: less peribroncheolar collagen fibrosis
[5]; C57BL/6→B10.BR cGVHD model
  lung and liver fibrosis (summary statement): reversed lung and liver fibrosis
[5]; p<0.0001, FIG. 1E
  quantified trichrome staining (pulmonary fibrosis, ratio of blue area to total area): ameliorates pulmonary fibrosis caused by cGVHD
[6]
  mouse bodyweight, weekly evaluation: little variation between groups
